Assay results reported in US11236046B2, “Substituted heterocyclic sulfonamide compounds useful as TRPA1 modulators” (Genentech, Inc., priority 2013, dated 2022).

Target: human TRPA1 (Homo sapiens (Human), UniProt O75762)
Assay: FLIPR Tetra calcium influx assay, block of cinnamaldehyde-induced calcium influx in CHO cells expressing TRPA1 (human)
Assay type: cell-based
Conditions: 20 min compound incubation, 75 uM cinnamaldehyde (~EC80), Hill coefficient fixed to 1.5, read-out: hTRPA1 AUC IC50
Procedure, shortened: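 CHO cells loaded with calcium dye, preincubated with compounds 20 min at room temperature in HBSS/20 mM HEPES pH 7.4 with 0.02% BSA. Channels activated by ~EC80 cinnamaldehyde (75 uM human, 45 uM rat); block of calcium influx read on FLIPR Tetra, IC50 fitted with fixed Hill coefficient.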

Chain of human TRPA1 (O75762 whole entry): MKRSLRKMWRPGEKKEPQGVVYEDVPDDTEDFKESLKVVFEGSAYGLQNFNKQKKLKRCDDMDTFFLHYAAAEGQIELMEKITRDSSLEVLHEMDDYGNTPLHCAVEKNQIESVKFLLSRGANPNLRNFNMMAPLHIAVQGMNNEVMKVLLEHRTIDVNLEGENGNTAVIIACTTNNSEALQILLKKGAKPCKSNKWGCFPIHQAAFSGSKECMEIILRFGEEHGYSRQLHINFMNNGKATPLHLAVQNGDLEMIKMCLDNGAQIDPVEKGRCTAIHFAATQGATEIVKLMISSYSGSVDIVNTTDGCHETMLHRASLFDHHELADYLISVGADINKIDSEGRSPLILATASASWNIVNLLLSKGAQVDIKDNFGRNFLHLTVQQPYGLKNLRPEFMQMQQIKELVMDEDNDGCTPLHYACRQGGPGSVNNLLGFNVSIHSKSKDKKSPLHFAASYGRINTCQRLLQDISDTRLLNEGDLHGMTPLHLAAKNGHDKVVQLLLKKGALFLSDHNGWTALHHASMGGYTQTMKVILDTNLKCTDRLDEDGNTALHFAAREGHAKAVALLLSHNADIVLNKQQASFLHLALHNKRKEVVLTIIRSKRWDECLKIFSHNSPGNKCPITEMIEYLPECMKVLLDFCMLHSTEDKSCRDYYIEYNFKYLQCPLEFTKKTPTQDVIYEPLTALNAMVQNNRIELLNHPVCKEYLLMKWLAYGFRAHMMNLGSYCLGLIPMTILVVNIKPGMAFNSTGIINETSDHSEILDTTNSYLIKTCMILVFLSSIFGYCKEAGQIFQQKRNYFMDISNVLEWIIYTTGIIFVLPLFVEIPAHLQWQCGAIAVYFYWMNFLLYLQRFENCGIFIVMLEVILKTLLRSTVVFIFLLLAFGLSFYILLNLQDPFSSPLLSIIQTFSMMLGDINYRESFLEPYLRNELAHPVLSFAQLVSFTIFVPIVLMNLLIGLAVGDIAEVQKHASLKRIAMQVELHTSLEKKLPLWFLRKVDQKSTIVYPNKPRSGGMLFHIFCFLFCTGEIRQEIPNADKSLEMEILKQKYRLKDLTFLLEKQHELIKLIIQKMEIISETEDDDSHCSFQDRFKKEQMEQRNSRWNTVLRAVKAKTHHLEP

| SMILES | IC50 [nM] |
| --- | --- |
| O=C(NCc1cc(-c2cnc(C(F)(F)F)nc2)c(Cl)cn1)[C@@H]1C[C@@H](F)CN1S(=O)(=O)c1ccc(F)cc1 [Example 192, (2S,4R)—N-([5-chloro-4-[2-(trifluoromethyl)pyrimidin-5-yl]pyridin-2-yl]methyl)-4-fluoro-1-[(4-fluorobenzene)sulfonyl]pyrrolidine-2-carboxamide] | 42 |
| O=C(NCc1cc(-c2ccc(C(F)(F)F)cc2)ncn1)[C@@H]1C[C@@H]2COC[C@@H]2N1S(=O)(=O)c1ccc(F)cc1 (single isomer, unassigned) [Example 100] | 449 |
| CNc1nc(CNC(=O)[C@@H]2C[C@@H](F)CN2S(=O)(=O)c2ccc(F)cc2)cc(-c2ccc(C(F)(F)F)cc2)n1 [Example 105, (2S,4R)-4-fluoro-1-[(4-fluorobenzene)sulfonyl]-N-[[2-(methylamino)-6-[4-(trifluoromethyl)phenyl]pyrimidin-4-yl]methyl]pyrrolidine-2-carboxamide] | 128 |
| O=C(NCc1cc(-c2ccc(C(F)(F)F)nc2)ncn1)[C@@H]1C[C@@H](F)CN1S(=O)(=O)c1ccc(F)cc1 [Example 154, (2S,4R)-4-fluoro-1-(4-fluorophenylsulfonyl)-N-((6-(6-(trifluoromethyl)pyridin-3-yl)pyrimidin-4-yl)methyl)pyrrolidine-2-carboxamide] | 97 |
| O=C(NCc1cc(-c2ccc(C3CC3)cc2)ncn1)[C@@H]1C[C@@H](F)CN1S(=O)(=O)c1ccc(F)cc1 [Example 155, (2S,4R)—N-((6-(4-cyclopropylphenyl)pyrimidin-4-yl)methyl)-4-fluoro-1-(4-fluorophenylsulfonyl)pyrrolidine-2-carboxamide] | 134 |
| O=C(NCc1cc(F)cc(-c2cnc(C(F)(F)F)nc2)c1)[C@]12C[C@H]1CCN2S(=O)(=O)c1ccc(F)cc1 [Example 181, (1R,5S)-4-(4-fluorophenyl)sulfonyl-N-[[3-fluoro-5-[2-(trifluoromethyl)pyrimidin-5-yl]phenyl]methyl]-4-azabicyclo[3.1.0]hexane-5-carboxamide] | 10 |
| O=C(NCc1cc(F)cc(-c2cnc(C(F)F)cn2)c1)[C@@H]1C[C@@H](F)CN1S(=O)(=O)c1ccc(F)cc1 [Example 90, (2S,4R)—N-[[3-[5-(difluoromethyl)pyrazin-2-yl]-5-fluoro-phenyl]methyl]-4-fluoro-1-(4-fluorophenyl)sulfonyl-pyrrolidine-2-carboxamide] | 62 |
| O=C(NCc1cc(N2C3CCC2CC(C(F)(F)F)C3)c(F)cn1)[C@@H]1C[C@@H](F)CN1S(=O)(=O)c1ccc(F)cc1 (stereo partly drawn) [Example 121, (2S,4R)-4-fluoro-N-([5-fluoro-4-[3-(trifluoromethyl)-8-azabicyclo[3.2.1]octan-8-yl]pyridin-2-yl]methyl)-1-[(4-fluorobenzene)sulfonyl]pyrrolidine-2-carboxamide] | 741 |
| O=C(NCc1cc(F)cc(C2CCC(C(F)(F)F)CN2)c1)[C@@H]1C[C@@H](F)CN1S(=O)(=O)c1ccc(F)cc1 (stereo partly drawn) [Example 74, (2S,4R)-4-fluoro-1-(4-fluorophenyl)sulfonyl-N-[[3-fluoro-5-[5-(trifluoromethyl)-2-piperidyl]phenyl]methyl]pyrrolidine-2-carboxamide] | 192 |
| O=C(NCc1cc(-c2cnc(C(F)(F)F)nc2)ccc1F)[C@]12C[C@H]1CCN2S(=O)(=O)c1ccc(F)cc1 [Example 182, (1R,5S)-4-(4-fluorophenyl)sulfonyl-N-[[2-fluoro-5-[2-(trifluoromethyl)pyrimidin-5-yl]phenyl]methyl]-4-azabicyclo[3.1.0]hexane-5-carboxamide] | 21 |
| O=C(NCc1cc(N2CCC(C(F)(F)F)CC2)c(C(F)(F)F)cn1)[C@@H]1C[C@@H](F)CN1S(=O)(=O)c1ccc(F)cc1 [Example 130, (2S,4R)-4-fluoro-1-(4-fluorophenyl)sulfonyl-N-[[5-(trifluoromethyl)-4-[4-(trifluoromethyl)-1-piperidyl]-2-pyridyl]methyl]pyrrolidine-2-carboxamide] | 52 |

Results, then the compound that gave them:

| IC50 [nM] | SMILES |
| --- | --- |
| 333 | C[C@@H]1C[C@@H](C(=O)NCc2cc(-c3ccc(C(F)(F)F)nc3)ncn2)N1S(=O)(=O)c1ccc(F)cc1 [Example 200, (2S,4R)-1-[(4-fluorobenzene)sulfonyl]-4-methyl-N-([6-[6-(trifluoromethyl)pyridin-3-yl]pyrimidin-4-yl]methyl)azetidine-2-carboxamide] |
| 49 | O=C(NCc1cc(-c2ccc(C(F)(F)F)nc2)cc(F)n1)[C@@H]1C[C@@H](F)CN1S(=O)(=O)c1ccc(F)cc1 [Example 120, (2S,4R)-4-fluoro-1-(4-fluorophenyl)sulfonyl-N-[[6-fluoro-4-[6-(trifluoromethyl)-3-pyridyl]-2-pyridyl]methyl]pyrrolidine-2-carboxamide] |
| 175 | Nc1nc(C(F)(F)F)ccc1-c1cc(CNC(=O)[C@@H]2C[C@@H](F)CN2S(=O)(=O)c2ccc(F)cc2)ccn1 [Example 178, (2S,4R)—N-[[2-[2-amino-6-(trifluoromethyl)-3-pyridyl]-4-pyridyl]methyl]-4-fluoro-1-(4-fluorophenyl)sulfonyl-pyrrolidine-2-carboxamide] |
| 7 | O=C(NCc1cc(-c2ccc(OC(F)(F)F)cc2)ncn1)[C@@H]1[C@@H](F)CCN1S(=O)(=O)c1ccc(F)cc1 [Example 111, (2R,3S)-3-fluoro-1-(4-fluorophenyl)sulfonyl-N-[[6-[4-(trifluoromethoxy)phenyl]pyrimidin-4-yl]methyl]pyrrolidine-2-carboxamide] |
| 163 | Cc1nc(CNC(=O)[C@@H]2C[C@@H](F)CN2S(=O)(=O)c2ccc(F)cc2)cc(-c2ccc(C(F)(F)F)nc2)n1 [Example 152, (2S,4R)-4-fluoro-1-(4-fluorophenylsulfonyl)-N-((2-methyl-6-(6-(trifluoromethyl)pyridin-3-yl)pyrimidin-4-yl)methyl)pyrrolidine-2-carboxamide] |
| 24 | C[C@@]1(F)C[C@@H](C(=O)NCc2cc(F)cc(-c3ccc(C(F)(F)F)nn3)c2)N(S(=O)(=O)c2ccc(F)cc2)C1 [Example 45, (2S,4R)-4-fluoro-1-(4-fluorophenyl)sulfonyl-N-[[3-fluoro-5-[6-(trifluoromethyl)pyridazin-3-yl]phenyl]methyl]-4-methyl-pyrrolidine-2-carboxamide] |
| 156 | O=C(NCc1cc(-c2ccc(C(F)(F)F)nc2)ncn1)[C@@H]1C[C@H]2C[C@H]2N1S(=O)(=O)c1ccc(F)cc1 [Example 123, (1R,3S,5R)-2-(4-fluorophenyl)sulfonyl-N-[[6-[6-(trifluoromethyl)-3-pyridyl]pyrimidin-4-yl]methyl]-2-azabicyclo[3.1.0]hexane-3-carboxamide] |
| 32 | N#Cc1ccc(-c2cnc(C(F)(F)F)nc2)cc1CNC(=O)[C@@H]1C[C@@H](F)CN1S(=O)(=O)c1ccc(F)cc1 [Example 164, (2S,4R)—N-(2-cyano-5-(2-(trifluoromethyl)pyrimidin-5-yl)benzyl)-4-fluoro-1-((4-fluorophenyl)sulfonyl)pyrrolidine-2-carboxamide] |
| 9 | COc1nn(-c2ccc(C(F)(F)F)nc2)cc1CNC(=O)[C@]1(C)C[C@@H](F)CN1S(=O)(=O)c1ccc(F)cc1 [Example 125, (2S,4R)-4-fluoro-1-[(4-fluorobenzene)sulfonyl]-N-([3-methoxy-1-[6-(trifluoromethyl)pyridin-3-yl]-1H-pyrazol-4-yl]methyl)-2-methylpyrrolidine-2-carboxamide] |
| 134 | COc1cnc(-c2cnc(C(F)(F)F)nc2)cc1CNC(=O)[C@@H]1C[C@@H](F)CN1S(=O)(=O)c1ccc(F)cc1 [Example 196, (2S,4R)-4-fluoro-1-(4-fluorophenylsulfonyl)-N-((5-methoxy-2-(2-(trifluoromethyl)pyrimidin-5-yl)pyridin-4-yl)methyl)pyrrolidine-2-carboxamide] |
| 48 | COc1nc(C(F)(F)F)ccc1-c1cc(F)cc(CNC(=O)[C@@H]2C[C@@H](F)CN2S(=O)(=O)c2ccc(F)cc2)c1 [Example 44, (2S,4R)-4-fluoro-N-([3-fluoro-5-[2-methoxy-6-(trifluoromethyl)pyridin-3-yl]phenyl]methyl)-1-[(4-fluorobenzene)sulfonyl]pyrrolidine-2-carboxamide] |
| 4 | O=C(NCc1cc(F)cc(-c2cnc(C(F)(F)F)cn2)c1)[C@@H]1[C@@H](F)CCN1S(=O)(=O)c1ccc(F)cc1 [Example 98, (2R,3S)-3-fluoro-N-([3-fluoro-5-[5-(trifluoromethyl)pyrazin-2-yl]phenyl]methyl)-1-[(4-fluorobenzene)sulfonyl]pyrrolidine-2-carboxamide] |
| 13 | N#Cc1cnc(-c2ccc(C(F)(F)F)nc2)cc1CNC(=O)[C@@H]1[C@@H](F)CCN1S(=O)(=O)c1ccc(F)cc1 [Example 166, (2R,3S)—N-([5-cyano-2-[6-(trifluoromethyl)pyridin-3-yl]pyridin-4-yl]methyl)-3-fluoro-1-[(4-fluorobenzene)sulfonyl]pyrrolidine-2-carboxamide] |
| 33 | O=C(NCc1cc(-c2ccc(C(F)F)cc2)ncn1)[C@@H]1[C@@H](F)CCN1S(=O)(=O)c1ccc(F)cc1 [Example 55, (2R,3S)—N-[[6-[4-(difluoromethyl)phenyl]pyrimidin-4-yl]methyl]-3-fluoro-1-(4-fluorophenyl)sulfonyl-pyrrolidine-2-carboxamide] |
| 52 | COCCOc1nc(C(F)(F)F)ccc1-c1cc(F)cc(CNC(=O)[C@@H]2C[C@@H](F)CN2S(=O)(=O)c2ccc(F)cc2)c1 [Example 190, (2S,4R)-4-fluoro-N-([3-fluoro-5-[2-(2-methoxyethoxy)-6-(trifluoromethyl)pyridin-3-yl]phenyl]methyl)-1-[(4-fluorobenzene)sulfonyl]pyrrolidine-2-carboxamide] |
| 26 | COc1nn(-c2ccc(C(F)(F)F)nc2)cc1CNC(=O)[C@@H]1[C@@H](F)CCN1S(=O)(=O)c1ccc(F)cc1 [Example 103, (2R,3S)-3-fluoro-1-(4-fluorophenylsulfonyl)-N-((3-methoxy-1-(6-(trifluoromethyl)pyridin-3-yl)-1H-pyrazol-4-yl)methyl)pyrrolidine-2-carboxamide] |
